We go through three compounds from patent US9078897B1, “Concentrated, inhalable antibiotic formulation” (ARADIGM CORPORATION, priority 2006, dated 2015).

One series concerns P. aeruginosa. Particulars: cited from earlier work.
The test system of the next series is IL-1. The series can be described thus: IL-1 levels in lungs after 14 days of inhalation. It is filed as in vivo, rats. The following applies: then 28 day recovery evaluation. From the text: The explanation for this surprising effect may be that the presence of free ciprofloxacin in the lung attenuates the release of cytokines which attract macrophages into the lung.

`CC[C@H]1OC(=O)[C@H](C)[C@@H](O[C@H]2C[C@@](C)(OC)[C@@H](O)[C@H](C)O2)[C@H](C)[C@@H](O[C@@H]2O[C@H](C)C[C@H](N(C)C)[C@H]2O)[C@](C)(O)C[C@@H](C)CN(C)[C@H](C)[C@@H](O)[C@]1(C)O` [azithromycin]: the “activity against P. aeruginosa” value in the series on P. aeruginosa is “no direct activity”.

Turning to `O=C(O)c1cn(C2CC2)c2cc(N3CCNCC3)c(F)cc2c1=O` [free ciprofloxacin, ciprofloxacin], the “levels of IL-1” value with IL-1 was “return to baseline values”.

For `NC[C@H]1O[C@H](O[C@H]2[C@H](O)[C@@H](O[C@H]3O[C@H](CO)[C@@H](O)[C@H](N)[C@H]3O)[C@H](N)C[C@@H]2N)[C@H](N)C[C@@H]1O` [tobramycin], the “activity against P. aeruginosa” value with P. aeruginosa is given as “possesses activity”.
